Laboratory results: patent US4737513A, “Novel pyrrole derivatives” (Roussel Uclaf, priority 1984, dated 1988)

Legend:
Assay type in all cases: in vivo
house flies = experiment: Study of knock-down activity of house flies (direct atomization in a Kearns and March chamber); details: for KT 50: concentration at 0.1 g/l, female house flies 4 days old, acetone (5%) and Isopar L; for knock-down power: general statement in the description
Experimental: (1) Study of knock-down activity of house flies
The test insects were female house flies 4 days old and the test was effected by direct atomization in a Kearns and March chamber using as solvent a mixture of acetone (5%) and Isopar L (petrol solvent) (quantity of solvent used, 2 ml in one second). 50 insects were used per treatment and checks were made every minute for 10 minutes, then at 15 minutes, and the KT50 was determined by the usual methods.

[1] = tested on: cockroaches (Blatella germanica); experiment: Study of activity by tarsal contact on cockroaches; details: male Blatella germanica; 1 hour on dried acetone deposit; mortality checked at 24 hours, 48 hours, 3 days and 5 days
Experimental: (2) Study of activity by tarsal contact on cockroaches
The insects tested were male cockroaches (Blatella germanica) and the test was carried out by depositing an acetone solution of a certain concentration on the bottom of a Petri dish 20 cm in diameter. After this had dried, 20 male cockroaches were allowed to stay there per concentration for 1 hour, after which they were transferred to a healthy medium and their mortality was checked at 24 hours, 48 hours, 3 days and 5 days. The result was expressed as lethal concentration 50 (LC 50) in mg/m^2.

Tetranychus urticae = experiment: Activity on Tetranychus urticae, test of lethal effect on adults; details: for LD 50: females on treated bean leaves, checked after 80 hours of contact
Experimental: (4) Activity on Tetranychus urticae, test of lethal effect on adults
Bean plants having two cotyledon leaves were used which were treated with a Fisher gun with an acetone solution of the product. After drying, 25 females of the acaridan Tetranychus urticae were placed on each leaf, that is 50 individuals per experimental dose per plant. The efficacity was checked after 80 hours of contact, and the LD 50 was indicated in mg/hl.

C=CCn1ccc(COC(=O)[C@@H]2[C@H](/C=C(/F)C(=O)OCC)C2(C)C)c1 [Example 56, 1-(2-propenyl-1H-pyrrol-3-yl)-methyl (1R,cisΔE) 2,2-dimethyl-3-(2-fluoro-3-ethoxy 3-oxo-1-propenyl)-cyclopropane carboxylate]
KT 50 (house flies): 4.0 min

C#CCn1ccc(COC(=O)[C@@H]2[C@H](/C=C(/F)C(=O)OC)C2(C)C)c1 [Example 4, [1-(2-propynyl)-1H-pyrrol-3-yl]-methyl (1R,cisΔE) 2,2-dimethyl-3-(3-methoxy-3-oxo-2-fluoro-1-propenyl)-cyclopropane carboxylate]
KT 50 (house flies): 2.4 min

C#CCn1cc(COC(=O)[C@@H]2[C@H](/C=C(/F)C(=O)OCC)C2(C)C)cc1C(F)(F)F [Example 70, [1-(2-propynyl)-2,2,2-trifluoromethyl-1H-pyrrol-4-yl]-methyl (1R,cis,ΔE) 2,2-dimethyl-3-[2-fluoro-3-ethoxy-3-oxo-1-propenyl]-cyclopropane carboxylate]
KT 50 (house flies): 3.9 min
lethal concentration 50 (LC 50) [1]: 4.5 mg/m^2
LD 50 (Tetranychus urticae): 2126 mg/hl

C#CCn1cc(C(C#C)OC(=O)[C@@H]2[C@H](/C=C(/F)C(=O)OCC)C2(C)C)cc1C#N (stereo partly drawn) [Example 57, [1-(2-propynyl)-2-cyano-1H-pyrrol-4-yl]-propyn-2-yl (1R,cisΔE) 2,2-dimethyl-3-[2-fluoro-3-ethoxy-3-oxo-1-propenyl]-cyclopropane carboxylate]
KT 50 (house flies): 4.0 min

C#CCn1ccc(COC(=O)[C@@H]2[C@H](/C=C\C(=O)OC(C)(C)C)C2(C)C)c1 [Example 3, [1-(2-propynyl)-1H-pyrrol-3-yl]-methyl (1R,cis,ΔZ) 2,2-dimethyl-3-(3-tert-butyloxy-3-oxo-1-propenyl)-cyclopropane carboxylate]
KT 50 (house flies): 5.8 min

CCOC(=O)/C(F)=C\[C@H]1[C@@H](C(=O)OCc2cc(C#N)n(C/C=C/Cl)c2)C1(C)C [Example 66, [2-cyano-1-[3-chloro-2-(E)-propenyl]-1H-pyrrol-4-yl]-methyl (1R,cisΔE) 2,2-dimethyl-3-[2-fluoro-3-ethoxy-3-oxo-1-propenyl]-cyclopropane carboxylate]
KT 50 (house flies): 7.9 min

C#CCn1cc(C(C)OC(=O)[C@@H]2[C@H](/C=C(/F)C(=O)OCC)C2(C)C)cc1C#N (stereo partly drawn) [Example 60, [1-(2-propynyl)-2-cyano-1H-pyrrol-4-yl]-ethyl (1R,cisΔE) 2,2-dimethyl-3-(2-fluoro-3-ethoxy-3-oxo-1-propenyl)-cyclopropane carboxylate]
KT 50 (house flies): 1.8 min

C#CCn1ccc(C(C#N)OC(=O)[C@@H]2[C@H](/C=C(/F)C(=O)OCC)C2(C)C)c1 (stereo partly drawn) [Example 15, cyano-[1-(2-propynyl)-1H-pyrrol-3-yl]-methyl (1R,cisΔE) 2,2-dimethyl-3-(3-ethoxy-3-oxo-2-fluoro-1-propenyl)-cyclopropane carboxylate]
KT 50 (house flies): 1.8 min
knock-down power (house flies): particularly remarkable

C=CCn1cc(C(C#N)OC(=O)[C@@H]2[C@H](C=C(Br)Br)C2(C)C)cc1C#N (stereo partly drawn) [Example 55, (R,S)-cyano-[1-(2-propenyl)-2-cyano-1H-pyrrol-4-yl]-methyl (1R,cis) 2,2-dimethyl-3-(2,2-dibromoethenyl)-cyclopropane carboxylate]
KT 50 (house flies): 8.7 min

C#CCn1ccc(COC(=O)[C@@H]2[C@H](/C=C\C(=O)OC)C2(C)C)c1C#N [Example 51, [1-(2-propynyl)-2-cyano-1H-pyrrol-3-yl]methyl (1R,cis) 2,2-dimethyl-3-(3-methoxy-3-oxo-1-propenyl)cyclopropane carboxylate]
KT 50 (house flies): 1.9 min

C#CCn1ccc(COC(=O)[C@@H]2[C@H](/C=C(/F)C(=O)OC(C)(C)C)C2(C)C)c1 [Example 5, [1-(2-propynyl)-1H-pyrrol-3-yl]-methyl (1R,cis,ΔE) 2,2-dimethyl-3-(3-tert-butoxy-3-oxo-2-fluoro-1-propenyl)-cyclopropane carboxylate]
KT 50 (house flies): 3.2 min

C#CCn1ccc(COC(=O)[C@@H]2[C@H](/C=C(/F)C(=O)OCC)C2(C)C)c1 [Example 2, [1-(2-propynyl)-1H-pyrrol-3-yl]-methyl (1R,cisΔE) 2,2-dimethyl-3-(3-ethoxy-3-oxo-2-fluoro-1-propenyl)-cyclopropane carboxylate]
KT 50 (house flies): 1.6 min
knock-down power (house flies): particularly remarkable

C#CCn1ccc(COC(=O)[C@@H]2[C@H](/C=C(/F)C(=O)OCC)C2(C)C)c1C#N [Example 52, [1-(2-propynyl)-2-cyano-1H-pyrrol-3-yl]methyl (1R,cis) 2,2-dimethyl-3-(2-fluoro-2-ethoxy-2-oxo-1-propenyl)cyclopropane carboxylate]
KT 50 (house flies): 1.5 min

C#CCn1ccc(COC(=O)[C@@H]2[C@H](C=C(Br)Br)C2(C)C)c1C#N [Example 26]
KT 50 (house flies): 3.5 min

C=CCn1cc(COC(=O)[C@@H]2[C@H](/C=C(/F)C(=O)OCC)C2(C)C)cc1C#N [Example 53, [1-(2-propenyl)-2-cyano-1H-pyrrol-4-yl]methyl (1R,cisΔE) 2,2-dimethyl-3-[2-fluoro-2-ethoxy-2-oxo-1-propenyl]cyclopropane carboxylate]
KT 50 (house flies): 2.4 min

C#CCn1cc(COC(=O)[C@@H]2[C@H](/C=C(/F)C(=O)OC(C)(C)C)C2(C)C)c(C(F)(F)F)c1 [Example 45, [1-(2-propynyl)-3-trifluoromethyl)-1H-pyrrol-4-yl]methyl (1R,cisΔE) 2,2-dimethyl-3-[2-fluoro-3-oxo-3-tertbutoxypropenyl]-cyclopropane carboxylate]
KT 50 (house flies): 6.1 min
lethal concentration 50 (LC 50) [1]: 6.4 mg/m^2
LD 50 (Tetranychus urticae): 264 mg/hl

C#CCn1ccc(COC(=O)[C@@H]2[C@H](/C=C\C(=O)OC)C2(C)C)c1 [Example 1, [1-(2-propynyl)-1H-pyrrol-3-yl]-methyl (1R,cisΔZ) 2,2-dimethyl-3-(3-methoxy-3-oxo-1-propenyl)-cyclopropane carboxylate]
KT 50 (house flies): 1.3 min
knock-down power (house flies): particularly remarkable

C#CCn1ccc(COC(=O)[C@@H]2[C@H](/C=C(/F)C(=O)OC(C)(C)C)C2(C)C)c1C(F)(F)F [Example 40, [2-trifluoromethyl-1-(2-propynyl)-1H-pyrrol-3-yl]-methyl (1R,cis,ΔE) 2,2-dimethyl-3-(3-tertbutyloxy-3-oxo-2-fluoropenyl)-cyclopropane carboxylate]
KT 50 (house flies): 5.6 min
knock-down power (house flies): particularly remarkable
acaricidal effect on Tetranychus urticae (Tetranychus urticae; conclusion of the test): remarkable acaricidal effect
LD 50 (Tetranychus urticae): 32 mg/hl

C#CCn1cc(COC(=O)[C@@H]2[C@H](/C=C(/F)C(=O)OCC)C2(C)C)c(C(F)(F)F)c1 [Example 72, [1-(2-propynyl)-3,3,3-trifluoromethyl-1H-pyrrol-4-yl]methyl (1R,cis,ΔE) 2,2-dimethyl-3-[2-fluoro-3-ethoxy-3-oxo-1-propenyl]-cyclopropane carboxylate]
KT 50 (house flies): 3.8 min
lethal concentration 50 (LC 50) [1]: 6.7 mg/m^2

C#CCn1ccc(C(C#N)OC(=O)[C@@H]2[C@H](/C=C(/F)C(=O)OCC)C2(C)C)c1C#N (stereo partly drawn) [Example 67, (R,S) cyano[1-(2-propynyl)-2-cyano-1H-pyrrol-3-yl]-methyl (1R,cisΔE) 2,2-dimethyl-3-(2-fluoro-3-ethoxy-3-oxo-1-propenyl)-cyclopropane carboxylate]
KT 50 (house flies): 3.8 min

C=CCn1cc(COC(=O)[C@@H]2[C@H](C=C(Br)Br)C2(C)C)cc1C#N (relative stereo) [Example 54, [1-(2-propenyl)-2-cyano-1H-pyrrol-4-yl]methyl (1R,cis) 2,2-dimethyl-3-(2,2-dibromoethenyl)-cyclopropane carboxylate]
KT 50 (house flies): 4.7 min

C#CCn1ccc(COC(=O)[C@@H]2[C@H](C=C(Br)Br)C2(C)C)c1 (relative stereo) [Example 6, [1-(2-propynyl)-1H-pyrrol-3-yl]-methyl (1R,cis) 2,2-dimethyl-3-(-dibromoethenyl)-cyclopropane carboxylate]
KT 50 (house flies): 4.7 min

C=CCn1ccc(C(C#N)OC(=O)[C@@H]2[C@H](C=C(Br)Br)C2(C)C)c1 (stereo partly drawn) [Example 50, (R,S)-cyano-[1-(2-propenyl)-1H-pyrrol-3-yl]methyl (1R,cis) 2,2-dimethyl-3-(2,2-dibromoethenyl)cyclopropane carboxylate]
KT 50 (house flies): 3.5 min

C#CCn1cc(C(C#N)OC(=O)[C@@H]2[C@H](/C=C(/F)C(=O)OCC)C2(C)C)cc1C#N (stereo partly drawn) [Example 44]
KT 50 (house flies): 2.2 min

CCOC(=O)/C(F)=C\[C@H]1[C@@H](C(=O)OCc2cc(C#N)n(C/C=C\Cl)c2)C1(C)C [Example 65, [2-cyano-[1-(3-chloro-2-(Z)-propenyl]-1H-pyrrol-4-yl]-methyl (1R,cis,ΔE) 2,2-dimethyl-3-(2-fluoro-3-ethoxy-3-oxo-1-propenyl)-cyclopropane carboxylate]
KT 50 (house flies): 3.1 min
